Results taken from ChEMBL document CHEMBL4376829, “Discovery and biological evaluation of vinylsulfonamide derivatives as highly potent, covalent TEAD autopalmitoylation inhibitors” (Eur J Med Chem, 2019).
The source made the active and inactive calls. The rule behind the calls is not given here.

Key:
[1] = target: 3-phosphoinositide-dependent protein kinase 1 (Homo sapiens) (UniProt O15530); experiment: Inhibition of recombinant human PDK1 (52 to end residues) at 10 uM using KTFCGTPEYLAPEVRREPRILSEEEQEMFRDFDYIADWC as substrate measured after 40 mins in presence of [gamma33P]ATP by scintillation counting method relative to control
Homo sapiens [2] = species on record: Homo sapiens; experiment: Inhibition of recombinant human Mer H628Q/R794A mutant (557 to 882 residues) at 10 uM using GGMEDIYFEFMGGKKK as substrate measured after 40 mins in presence of [gamma33P]ATP by scintillation counting method relative to control
[3] = target: Tyrosine-protein kinase Lck (Homo sapiens) (UniProt P06239); experiment: Inhibition of recombinant full-length human LCK at 10 uM using KVEKIGEGTYGVVYK as substrate measured after 40 mins in presence of [gamm33P]ATP by scintillation counting method relative to control
[4] = target: 5'-AMP-activated protein kinase catalytic subunit alpha-2 (Homo sapiens) (UniProt P54646); experiment: Inhibition of recombinant full length human AMPKalpha2 at 10 uM using AMARAASAAALARRR as substrate after 40 mins in presence of [gamma33P]ATP by scintillation counting method relative to control
Sequence of 5'-AMP-activated protein kinase catalytic subunit alpha-2 (Homo sapiens) (P54646 whole entry, looked up, the tested form may be a part): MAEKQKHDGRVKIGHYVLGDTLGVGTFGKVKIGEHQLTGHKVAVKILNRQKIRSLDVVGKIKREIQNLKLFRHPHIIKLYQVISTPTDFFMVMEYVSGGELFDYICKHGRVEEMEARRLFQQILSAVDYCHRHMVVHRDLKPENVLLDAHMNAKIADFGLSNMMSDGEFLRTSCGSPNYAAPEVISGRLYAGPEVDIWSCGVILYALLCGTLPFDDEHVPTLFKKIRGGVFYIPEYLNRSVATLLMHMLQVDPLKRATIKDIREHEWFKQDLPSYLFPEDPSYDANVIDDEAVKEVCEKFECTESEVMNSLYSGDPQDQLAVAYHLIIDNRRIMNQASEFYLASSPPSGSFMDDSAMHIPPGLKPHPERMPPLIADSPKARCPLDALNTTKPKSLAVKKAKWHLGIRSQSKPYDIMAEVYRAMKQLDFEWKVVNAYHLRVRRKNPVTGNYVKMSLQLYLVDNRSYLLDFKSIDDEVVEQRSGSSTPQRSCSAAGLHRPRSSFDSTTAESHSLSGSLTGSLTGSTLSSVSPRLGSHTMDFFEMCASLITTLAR

[5] = target: Receptor-interacting serine/threonine-protein kinase 2 (Homo sapiens) (UniProt O43353); experiment: Inhibition of human RIPK2 (1 to 299 residues) at 10 uM using MBP as substrate measured after 120 mins in presence of [gamma33P]ATP by scintillation counting method relative to control
Sequence of Receptor-interacting serine/threonine-protein kinase 2 (Homo sapiens) (O43353 whole entry, the tested form may be a part): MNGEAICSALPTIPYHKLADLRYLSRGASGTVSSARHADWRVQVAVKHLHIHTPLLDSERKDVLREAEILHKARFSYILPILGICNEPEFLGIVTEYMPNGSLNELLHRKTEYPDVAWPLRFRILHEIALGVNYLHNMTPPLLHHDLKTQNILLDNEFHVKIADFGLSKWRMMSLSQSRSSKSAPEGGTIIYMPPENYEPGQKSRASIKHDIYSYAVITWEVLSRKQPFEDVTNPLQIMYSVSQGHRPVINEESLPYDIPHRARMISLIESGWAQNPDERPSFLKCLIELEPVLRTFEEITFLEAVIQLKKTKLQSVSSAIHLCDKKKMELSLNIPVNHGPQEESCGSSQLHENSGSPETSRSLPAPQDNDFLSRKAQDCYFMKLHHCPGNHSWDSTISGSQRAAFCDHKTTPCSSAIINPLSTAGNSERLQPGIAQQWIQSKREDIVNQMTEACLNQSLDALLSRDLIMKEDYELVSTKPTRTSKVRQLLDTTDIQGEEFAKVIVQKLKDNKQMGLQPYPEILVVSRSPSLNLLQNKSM

Homo sapiens [6] = species on record: Homo sapiens; experiment: Inhibition of human Ros V2262A mutant(1883 to end residues) at 10 uM using KKKSPGEYVNIEFG as substrate measured after 40 mins in presence of [gamma33P]ATP by scintillation counting method relative to control
[7] = target: Cyclin-dependent kinase 1/cyclin B1 (Homo sapiens) (UniProt P06493+P14635); experiment: Inhibition of full-length recombinant human CDK1/cyclinB at 10 uM using histone H1 as substrate after 40 mins by in presence of [gamma33P]ATP by scintillation counting method relative to control; format: protein-complex assay
Homo sapiens [8] = species on record: Homo sapiens; experiment: Inhibition of recombinant human Flt4 V1128L/H1146R mutant (800 to end residues) at 10 uM using GGEEEEYFELVKKKK as substrate measured after 40 mins in presence of [gamma33P]ATP by scintillation counting method relative to control
[9] = CoA reactivity in PBS assessed as CoA adduct formation at 1 mM after 8 hrs by UPLC-MS analysis
[10] = target: Ephrin type-B receptor 4 (Homo sapiens) (UniProt P54760); experiment: Inhibition of human EphB4 (561 to end residues) using poly (Glu, Tyr) 4:1 as substrate at 10 uM after 40 mins in presence of [gamma-33P]-ATP by scintillation counting relative to control
Homo sapiens [11] = species on record: Homo sapiens; experiment: Inhibition of TEAD transcriptional activity in human HCT116 cells assessed as reduction in CTGF expression by qRT-PCR analysis; format: cell-based
[12] = target: Serine/threonine-protein kinase PAK 1 (Homo sapiens) (UniProt Q13153); experiment: Inhibition of recombinant human PAK1 (150 to end residues) at 10 uM using RRRLSFAEPG as substrate measured after 40 mins in presence of [gamma33P]ATP by scintillation counting method relative to control
Sequence of Serine/threonine-protein kinase PAK 1 (Homo sapiens) (Q13153 whole entry): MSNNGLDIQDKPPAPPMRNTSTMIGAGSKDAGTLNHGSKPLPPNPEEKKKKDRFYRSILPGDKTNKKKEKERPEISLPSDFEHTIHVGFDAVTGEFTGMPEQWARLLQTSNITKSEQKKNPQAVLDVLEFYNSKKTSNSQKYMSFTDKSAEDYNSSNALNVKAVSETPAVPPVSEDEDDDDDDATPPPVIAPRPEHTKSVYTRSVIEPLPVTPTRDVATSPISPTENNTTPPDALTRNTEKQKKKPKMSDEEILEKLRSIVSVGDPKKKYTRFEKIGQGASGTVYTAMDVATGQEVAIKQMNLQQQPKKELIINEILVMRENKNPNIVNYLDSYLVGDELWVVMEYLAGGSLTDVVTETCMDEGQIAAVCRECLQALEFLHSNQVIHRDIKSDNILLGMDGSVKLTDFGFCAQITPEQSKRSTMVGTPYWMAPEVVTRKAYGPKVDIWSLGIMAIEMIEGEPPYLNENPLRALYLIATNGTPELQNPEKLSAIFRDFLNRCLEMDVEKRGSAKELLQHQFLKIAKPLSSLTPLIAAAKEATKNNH

[13] = target: Calcium/calmodulin-dependent protein kinase type 1 (Homo sapiens) (UniProt Q14012); experiment: Inhibition of recombinant full length human CAMK1 (2 to end residues) at 10 uM using […] as substrate incubated for 40 mins in presence of [gamma-33P]-ATP by scintillation counting method relative to control
Sequence of Calcium/calmodulin-dependent protein kinase type 1 (Homo sapiens) (Q14012 whole entry, looked up): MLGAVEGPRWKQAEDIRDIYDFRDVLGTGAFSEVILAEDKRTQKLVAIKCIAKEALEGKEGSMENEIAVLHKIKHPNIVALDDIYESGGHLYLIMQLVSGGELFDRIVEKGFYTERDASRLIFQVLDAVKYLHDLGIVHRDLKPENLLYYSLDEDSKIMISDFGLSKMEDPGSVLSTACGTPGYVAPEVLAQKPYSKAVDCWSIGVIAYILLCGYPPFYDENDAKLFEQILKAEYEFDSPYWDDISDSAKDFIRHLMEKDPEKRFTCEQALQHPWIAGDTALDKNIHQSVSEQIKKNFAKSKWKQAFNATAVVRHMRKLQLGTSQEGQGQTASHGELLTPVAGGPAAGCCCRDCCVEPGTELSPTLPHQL

[14] = target: Serine/threonine-protein kinase NLK (Homo sapiens) (UniProt Q9UBE8); experiment: Inhibition of recombinant human NLK (121 to end residues) at 10 uM using myelin basic protein as substrate measured after 40 mins in presence of [gamma33P]ATP by scintillation counting method relative to control
Sequence of Serine/threonine-protein kinase NLK (Homo sapiens) (Q9UBE8 whole entry, the tested form may be a part): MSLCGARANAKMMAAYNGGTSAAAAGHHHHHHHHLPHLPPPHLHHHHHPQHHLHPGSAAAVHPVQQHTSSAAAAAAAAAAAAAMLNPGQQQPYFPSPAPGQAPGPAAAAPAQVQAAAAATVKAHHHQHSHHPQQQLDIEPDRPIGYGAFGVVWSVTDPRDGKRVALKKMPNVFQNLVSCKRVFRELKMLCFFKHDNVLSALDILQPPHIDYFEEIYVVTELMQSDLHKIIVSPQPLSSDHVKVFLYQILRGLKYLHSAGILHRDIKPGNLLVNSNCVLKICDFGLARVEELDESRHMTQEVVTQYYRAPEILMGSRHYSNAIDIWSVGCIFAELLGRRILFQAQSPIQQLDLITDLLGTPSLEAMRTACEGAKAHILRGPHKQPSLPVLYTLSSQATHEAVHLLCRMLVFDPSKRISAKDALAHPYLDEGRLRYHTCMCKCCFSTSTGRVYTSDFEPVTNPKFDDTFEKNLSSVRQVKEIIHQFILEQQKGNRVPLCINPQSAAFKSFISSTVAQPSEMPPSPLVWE

[15] = target: CDK4/Cyclin D3 (Homo sapiens) (UniProt P11802+P30281); experiment: Inhibition of recombinant full-length human CDK4/cyclinD3 at 10 uM using Rb fragment as substrate measured after 40 mins in presence of [gamma33P]ATP by scintillation counting method relative to control; format: protein-complex assay
[16] = target: Serine/threonine-protein kinase 38-like (Homo sapiens) (UniProt Q9Y2H1); experiment: Inhibition of recombinant human NDR2 (83 to end residues) at 10 uM using RSRSRSRSRSRSRSR as substrate measured after 40 mins in presence of [gamma33P]ATP by scintillation counting method relative to control
Sequence of Serine/threonine-protein kinase 38-like (Homo sapiens) (Q9Y2H1 2-464 limits assumed): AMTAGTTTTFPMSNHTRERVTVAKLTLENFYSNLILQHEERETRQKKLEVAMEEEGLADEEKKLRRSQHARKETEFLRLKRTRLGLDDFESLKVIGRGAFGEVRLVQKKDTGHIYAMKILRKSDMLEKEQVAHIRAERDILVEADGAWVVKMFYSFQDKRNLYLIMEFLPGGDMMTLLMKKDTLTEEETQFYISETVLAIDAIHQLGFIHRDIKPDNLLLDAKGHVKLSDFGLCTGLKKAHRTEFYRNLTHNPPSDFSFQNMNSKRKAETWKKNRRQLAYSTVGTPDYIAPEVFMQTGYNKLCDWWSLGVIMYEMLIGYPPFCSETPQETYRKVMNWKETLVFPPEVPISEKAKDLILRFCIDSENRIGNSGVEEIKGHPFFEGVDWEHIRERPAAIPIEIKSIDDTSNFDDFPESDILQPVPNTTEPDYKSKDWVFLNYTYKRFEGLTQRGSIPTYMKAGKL

Homo sapiens [17] = species on record: Homo sapiens; experiment: Inhibition of recombinant human MAPKAPK2 A399G mutant (46 to end residues) at 10 uM using KKLNRTLSVA as substrate measured after 40 mins in presence of [gamma33P]ATP by scintillation counting method relative to control
[18] = target: T1, Transcriptional enhancer factor TEF-3 (Homo sapiens, UniProt Q15561); experiment: Inhibition of N-terminal His6-tagged human TEAD4-YBD (217 to 434 residues) expressed in Escherichia coli C43 (DE3) cells at 50 to 1000 nM preincubated for 2 hrs followed by palmitoyl alkyne-coenzyme A addition and measured after 30 mins in presence of BSA by immunoblot analysis
T1 sequence (Q15561 whole entry, the tested form may be a part): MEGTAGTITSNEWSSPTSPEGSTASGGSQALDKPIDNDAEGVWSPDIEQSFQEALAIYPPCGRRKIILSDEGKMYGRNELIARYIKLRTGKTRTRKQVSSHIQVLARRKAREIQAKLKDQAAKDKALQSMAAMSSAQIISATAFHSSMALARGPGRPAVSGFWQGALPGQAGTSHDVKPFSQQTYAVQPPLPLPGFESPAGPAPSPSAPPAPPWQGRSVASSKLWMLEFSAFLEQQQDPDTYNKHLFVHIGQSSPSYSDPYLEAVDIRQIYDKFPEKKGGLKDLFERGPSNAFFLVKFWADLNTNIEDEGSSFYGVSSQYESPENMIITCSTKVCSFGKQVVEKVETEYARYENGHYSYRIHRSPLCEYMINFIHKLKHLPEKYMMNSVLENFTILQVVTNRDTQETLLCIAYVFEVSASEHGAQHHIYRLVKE

Homo sapiens [19] = species on record: Homo sapiens; experiment: Inhibition of full length recombinant human PRAK R291E mutant at 10 uM using KKLRRTLSVA as substrate after 40 mins in presence of [gamma33P]ATP by scintillation counting method relative to control
[20] = target: Fibroblast growth factor receptor 4 (Homo sapiens) (UniProt P22455); experiment: Inhibition of recombinant human FGFR4 (442 to 755 residues) at 10 uM using poly(Glu, Tyr) 4:1 as substrate measured after 40 mins in presence of [gamma33P]ATP by scintillation counting method relative to control
Sequence of Fibroblast growth factor receptor 4 (Homo sapiens) (P22455 22-802 limits assumed): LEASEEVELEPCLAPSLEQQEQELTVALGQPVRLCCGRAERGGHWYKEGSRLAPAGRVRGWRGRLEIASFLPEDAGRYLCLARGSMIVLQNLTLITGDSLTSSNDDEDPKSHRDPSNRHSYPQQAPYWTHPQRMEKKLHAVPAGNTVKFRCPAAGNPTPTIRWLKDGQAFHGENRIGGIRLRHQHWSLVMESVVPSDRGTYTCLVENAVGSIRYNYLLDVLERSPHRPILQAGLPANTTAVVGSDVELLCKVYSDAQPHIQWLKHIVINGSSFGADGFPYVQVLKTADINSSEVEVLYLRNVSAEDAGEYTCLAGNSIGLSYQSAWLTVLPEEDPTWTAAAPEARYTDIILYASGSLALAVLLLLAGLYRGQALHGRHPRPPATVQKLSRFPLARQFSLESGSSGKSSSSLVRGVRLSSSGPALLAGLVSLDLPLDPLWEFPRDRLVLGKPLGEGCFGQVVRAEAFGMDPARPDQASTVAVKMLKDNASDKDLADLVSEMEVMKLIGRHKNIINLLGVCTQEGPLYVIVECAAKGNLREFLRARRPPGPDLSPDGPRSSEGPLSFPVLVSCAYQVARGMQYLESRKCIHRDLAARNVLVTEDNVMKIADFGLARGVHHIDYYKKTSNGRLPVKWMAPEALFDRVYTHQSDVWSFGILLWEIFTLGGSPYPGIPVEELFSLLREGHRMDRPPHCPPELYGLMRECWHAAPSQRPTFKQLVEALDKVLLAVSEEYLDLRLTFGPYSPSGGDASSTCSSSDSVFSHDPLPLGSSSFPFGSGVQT

[21] = target: T1, Transcriptional enhancer factor TEF-3; experiment: Inhibition of N-terminal His6 tagged human TEAD4-YBD (217 to 434 residues) expressed in Escherichia coli C43 (DE3) cells assessed as reduction in autopalmitoylation at 200 nM preincubated for 2 hrs followed by palmitoyl alkyne-coenzyme A addition and measured after 30 mins immunoblot analysis relative to control
[22] = target: Tyrosine-protein kinase JAK1 (Homo sapiens) (UniProt P23458); experiment: Inhibition of recombinant human JAK1 (866 to end residues) at 10 uM using GEEPLYWSFPAKK as substrate measured after 40 mins in presence of [gamm33P]ATP by scintillation counting method relative to control
[23] = target: Protein kinase C beta type (Homo sapiens) (UniProt P05771); experiment: Inhibition of recombinant human PKCbeta2 (2 to end residues) at 10 uM using histone H1 as substrate after 40 mins by in presence of [gamma33P]ATP by scintillation counting method relative to control
Sequence of Protein kinase C beta type (Homo sapiens) (P05771 2-671 limits assumed): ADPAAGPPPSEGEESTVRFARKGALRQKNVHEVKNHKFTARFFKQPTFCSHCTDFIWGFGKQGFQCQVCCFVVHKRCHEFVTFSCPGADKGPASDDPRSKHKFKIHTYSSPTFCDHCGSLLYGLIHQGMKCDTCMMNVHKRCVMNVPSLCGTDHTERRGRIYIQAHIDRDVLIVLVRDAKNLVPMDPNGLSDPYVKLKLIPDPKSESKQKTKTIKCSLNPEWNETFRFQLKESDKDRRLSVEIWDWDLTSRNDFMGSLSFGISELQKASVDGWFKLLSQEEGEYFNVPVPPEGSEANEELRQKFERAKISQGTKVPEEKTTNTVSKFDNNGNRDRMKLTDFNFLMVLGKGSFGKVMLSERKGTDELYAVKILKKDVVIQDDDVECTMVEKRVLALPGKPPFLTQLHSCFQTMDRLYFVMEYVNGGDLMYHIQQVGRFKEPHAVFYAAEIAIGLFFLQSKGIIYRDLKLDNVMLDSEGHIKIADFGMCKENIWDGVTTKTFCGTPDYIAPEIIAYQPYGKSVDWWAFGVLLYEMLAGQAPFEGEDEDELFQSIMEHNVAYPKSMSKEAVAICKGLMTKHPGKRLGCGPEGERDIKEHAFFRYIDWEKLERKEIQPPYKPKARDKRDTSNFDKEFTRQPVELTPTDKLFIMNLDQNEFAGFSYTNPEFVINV

[24] = target: T1, Transcriptional enhancer factor TEF-3; experiment: Binding affinity to N-terminal His6-tagged human TEAD4-YBD (217 to 434 residues) expressed in Escherichia coli C43 (DE3) cells assessed as change in melting temperature at 1:2 ratio by SYPRO-dye based thermal shift assay

C=CS(=O)(=O)Nc1ccc(Cc2ccc3ccccc3c2)cc1
inhibition [1]: 3% | inhibition (Homo sapiens [2]): 13% | inhibition [3]: 6% | inhibition [4]: 5% | inhibition [5]: 6% | inhibition (Homo sapiens [6]): -6% | inhibition [7]: 4% | inhibition (Homo sapiens [8]): 15% | Activity [9]: inactive | inhibition [10]: 8% | inhibition (Homo sapiens [11]): Dose-dependent effect | inhibition [12]: 5% | inhibition [13]: 6% | inhibition [14]: 2% | inhibition [15]: 11% | inhibition [16]: -6% | inhibition (Homo sapiens [17]): -6% | inhibition [18]: Active | inhibition (Homo sapiens [19]): 2% | inhibition [20]: -4% | inhibition [21]: 72.5% | inhibition [22]: 7% | inhibition [23]: 4% | ΔTm [24]: 7.4 °C
